Test results: paper PMC6739329 (Scientific Reports, 2019)
pIC50, pKd: −log10 of the molar value. Read-outs that look alike come from different tables or passages of the source.

Columns and labels:
[1] = resulting from the required aspirin dosage; cited from earlier work
[2] = target: T1, ENO1 (Homo sapiens, UniProt P06733); assay: Thermal stability assay of ENO1 with salicylates; conditions: 2 µM ENO1, Tm 44 °C in the absence of SA or amoB1
Procedure: Data are mean ± SD (n = 3). Experiments were repeated three times with similar results.
Thermal stability assay was performed with ENO1 and PKM2 as previously described with minor modifications[7].
A thermal stability assay was used to examine the binding activities of ENO1 and PMK2 with salicylates as previously described with minor modifications 6. Purified ENO1 and
final concentration of each protein was 2 μM in 16 μl of reaction buffer (0.1 M HEPES, pH 7.5, 150 mM NaCl, and 5 mM BME). Four μl of a 1:200 dilution of stock SYPRO orange dye (Invitrogen) in reaction buffer was added to achieve a total reaction volume of 20 μl. Thermal melt curves were obtained by heating the protein from 20–95°C and monitoring fluorescence at 590 nm with a CFX96 Real-Time PCR Detection System (Bio-Rad). All curves were obtained in triplicate and averaged.

[3] = target: T2, PKM2 (Homo sapiens, UniProt P14618); assay: In vitro PKM activity assay (LDH-coupled, NADH to NAD+), PKM2; format: biochemical; conditions: 1.3 ng/µL PKM2
T2 construct: each gene was amplified and cloned into pET28a vector for recombinant protein production; 6xHis; made in house; host or cells: Escherichia coli BL21
T2 sequence (P14618 whole entry): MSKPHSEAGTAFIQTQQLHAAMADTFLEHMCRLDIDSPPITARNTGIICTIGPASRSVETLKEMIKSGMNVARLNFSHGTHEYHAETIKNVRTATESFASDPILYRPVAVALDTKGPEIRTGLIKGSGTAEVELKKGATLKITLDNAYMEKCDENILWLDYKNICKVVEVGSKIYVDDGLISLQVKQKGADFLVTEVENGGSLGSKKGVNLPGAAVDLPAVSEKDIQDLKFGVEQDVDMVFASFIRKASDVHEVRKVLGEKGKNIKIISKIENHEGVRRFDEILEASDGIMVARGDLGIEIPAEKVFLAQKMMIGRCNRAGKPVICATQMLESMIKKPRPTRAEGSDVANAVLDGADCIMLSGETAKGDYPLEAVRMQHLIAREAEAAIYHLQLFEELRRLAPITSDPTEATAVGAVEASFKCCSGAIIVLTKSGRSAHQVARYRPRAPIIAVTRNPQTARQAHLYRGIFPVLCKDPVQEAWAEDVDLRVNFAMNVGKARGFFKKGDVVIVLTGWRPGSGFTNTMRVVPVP
Procedure: PK activity was measured using a method described previously with minor modifications. In brief, PK activity was measured by monitoring pyruvate-dependent conversion of NADH to NAD^+ by lactate dehydrogenase (LDH). Increasing concentrations of salicylates were incubated with PKM2 (final concentration 1.3 ng/uL) for 30 min at RT in the incubation buffer (50 mM Tris-HCl, pH 7.5, 100 mM KCl, 5 mM MgCl2) before mixing with 1/10 volume of 10X pyruvate kinase reaction buffer (500 mM Tris-HCl, pH 7.5, 500 mM KCl, 50 mM MgCl2, 5 mM PEP (Sigma-Aldrich, P0564), 6 mM ADP (Sigma-Aldrich, A5285), 80 units LDH (Sigma-Aldrich, L1254), 10 mM DTT, and 1.80 mM NADH (SigmaAldrich, N8129)).

[4] = target: maltose-binding protein (MBP) (Escherichia coli, UniProt P0AEX9); assay: Thermal stability assay of maltose-binding protein (negative control protein); conditions: 10 mM SA
[5] = system: HEK293 cells; assay: In vivo glycolytic activity assay (extracellular lactate); format: cell-based, human; conditions: for Reduction of extracellular lactate levels: 15 hrs
Procedure: Data are mean ± SD (n = 3).
Glycolytic activity of HEK293 cells in the absence or presence of different concentrations of salicylates was measured by monitoring the level of lactate produced[33],[34]. HEK293 cells were seeded in 96-well tissue culture plates at a density of 10^4 cells/well in 120 µL of complete medium (DMEM medium supplemented with 10% heat-inactivated FBS). Plates were incubated overnight in a CO2 incubator at 37 °C. […] Following a 15 hr incubation in a CO2 incubator at 37 °C, cellular supernatants were collected and lactate levels were measured by colorimetry according to the manufacturer’s instructions for a glycolysis cell-based assay kit (Cayman, Ann Arbor, Michigan).

[6] = system: HEK293 cells; assay: Morphology of HEK293 cells treated 15 h with salicylates; format: cell-based, human; conditions: 15 h treatment
From the text: Data are mean ± SD (n = 3). […] Scale bar = 20 μm.
changes in HEK293 cells. Scale bar = 50 μm.
changes of HEK293 cells. Scale bar = 50 μm.

[7] = target: T1, ENO1; assay: In vitro ENO1 activity assay (2-PGA to PEP, absorbance at 240 nm)
Procedure: Background signals induced by reaction solutions containing salicylates and 2-PGA, but without ENO1, were subtracted to calculate ΔOD240. […] Percent inhibition was calculated by monitoring the ΔOD240 at 5 min with or without salicylates. Data are mean ± SD (n = 3). Experiments were repeated three times with similar results.
The catalytic activity of ENO1 was tested as previously described with minor modifications[80]. Briefly, increasing concentrations of salicylates were incubated with 0.1 µM ENO1 for 30 min at RT in reaction buffer (10 mM KCl, 5 mM MgSO4, 100 mM triethanolamine pH 7.4).

[8] = target: PKM1 (Homo sapiens, UniProt P14618); assay: In vitro PKM activity assay, PKM1; format: biochemical; conditions: SA 0.4 mM
Chain of PKM1 (P14618 1-531 isoform P14618-2, species assumed): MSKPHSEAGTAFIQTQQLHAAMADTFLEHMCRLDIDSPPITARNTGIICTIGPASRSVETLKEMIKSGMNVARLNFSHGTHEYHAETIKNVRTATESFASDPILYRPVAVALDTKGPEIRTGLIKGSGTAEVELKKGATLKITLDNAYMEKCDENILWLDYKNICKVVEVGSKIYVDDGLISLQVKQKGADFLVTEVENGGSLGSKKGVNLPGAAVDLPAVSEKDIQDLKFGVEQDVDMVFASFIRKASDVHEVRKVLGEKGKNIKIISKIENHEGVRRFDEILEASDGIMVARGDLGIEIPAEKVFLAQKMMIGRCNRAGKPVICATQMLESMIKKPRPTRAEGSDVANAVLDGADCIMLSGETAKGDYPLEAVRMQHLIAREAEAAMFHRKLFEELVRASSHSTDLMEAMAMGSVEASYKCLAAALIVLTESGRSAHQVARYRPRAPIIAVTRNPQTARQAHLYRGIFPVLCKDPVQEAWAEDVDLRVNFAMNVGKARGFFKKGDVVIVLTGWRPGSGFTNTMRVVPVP

[9] = target: T2, PKM2; assay: Thermal stability assay of PKM2 with salicylates; format: binding; conditions: 2 µM PKM2, Tm 42 °C without ligand
[10] = target: T1, ENO1; conditions: read-out: Kd (quenching of ENO1 intrinsic fluorescence); 1 µM ENO1, 30 min at RT
Procedure: For the Trp intrinsic fluorescence assay, different concentrations of salicylates were incubated with 1 µM ENO1 for 30 min at RT, then Trp emission fluorescence was obtained (excitation/emission = 295 nm/350 nm). […] Data are mean ± SD (n = 3). Experiments were repeated three times with similar results.
Binding of salicylates to ENO1 and PKM2 was assessed using a Trp intrinsic fluorescence assay as previously described[79].
A Trp intrinsic fluorescence assay was used to examine the binding of salicylates to ENO1
The final concentration of each protein was 1 μM in phosphate-buffered saline (PBS) buffer. The mixtures were subjected to excitation wavelength of 295 nm and the Trp emission fluorescence was recorded at 350 nm using a LS55 fluorescence spectrometer (Perkin Elmer). All data were obtained in triplicate and averaged.

[11] = target: T2, PKM2; assay: Tryptophan (Trp) intrinsic fluorescence assay of PKM2; format: binding; conditions: 1 µM PKM2, 30 min at RT; read-out: Kd (quenching of PKM2 intrinsic fluorescence)

T1 sequence (P06733 whole entry): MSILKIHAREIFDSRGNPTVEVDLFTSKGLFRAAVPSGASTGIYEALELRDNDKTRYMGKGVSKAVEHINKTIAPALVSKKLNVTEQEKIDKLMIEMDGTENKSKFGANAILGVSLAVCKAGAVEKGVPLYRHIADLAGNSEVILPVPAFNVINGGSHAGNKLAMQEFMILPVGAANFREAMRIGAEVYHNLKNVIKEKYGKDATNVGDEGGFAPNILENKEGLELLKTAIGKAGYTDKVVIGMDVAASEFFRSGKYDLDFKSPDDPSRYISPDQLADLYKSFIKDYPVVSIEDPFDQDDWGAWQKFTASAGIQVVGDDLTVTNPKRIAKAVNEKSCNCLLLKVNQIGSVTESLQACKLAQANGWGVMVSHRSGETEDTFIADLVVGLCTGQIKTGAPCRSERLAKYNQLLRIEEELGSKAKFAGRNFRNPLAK

What does the source list for O=C(O)c1ccccc1O [SA, Salicylic acid]?
SA in the plasma for analgesic/antipyretic effects [1]: ~ 0.5 mM; Tm of ENO1 ([2]; 5 mM SA): 43.0 °C; inhibition at 400 µM ([3]; 400 µM SA): ≤ 40%; Tm of MBP [4]: not altered; Reduction of extracellular lactate levels ([5]; 0.5 mM SA): 12%; Reduction of extracellular lactate levels ([5]; 1.0 mM SA): 27%; Concentration at which cells were substantially smaller and more spherical [6]: ≥ 20000 µM; Concentration with no detectable morphological deformation of cells ([6]; microscope): up to 10 mM; pIC50 [7]: 2.89; Effect on PKM1 enzymatic activity [8]: did not alter; Tm of PKM2 ([9]; 5 mM SA): 41 °C

What does the source list for COc1cc(CCc2ccccc2)c(C(=O)O)c(O)c1C/C=C(\C)CCC=C(C)C [amoB1, amorfrutin B1]?
pKd [10]: 4.57; pKd [11]: 5.49; Tm of ENO1 ([2]; 12.5 µM amoB1): 45.1 °C; pIC50 [3]: 4.82; Extracellular lactate levels ([5]; 20–50 µM amoB1, 15 hr): drastically reduced; Extracellular lactate levels ([5]; amoB1 up to 10 µM, 15 hr): not substantially altered; Concentration at which cell deformation was observed [6]: above 2 µM; Concentration with no visible morphological changes of cells [6]: Up to 2 µM; Potency of ENO1 inhibition relative to SA (times stronger than SA) ([7]; ratio of IC50 values): ~ 84 times; pIC50 ([7]; read-out: IC50 for ENO1 enzymatic activity, 0.1 µM ENO1, […] 2-PGA, ΔOD240 at 5 min): 4.81; Tm of PKM2 ([9]; 5 µM amoB1): 42.4 °C
